Usually IC50 stands for the point on the concentration scale where inhibition reaches its midpoint.

Our source for the IC50 values is patent US10975093B2, “Fused 1,4-diazepines as BET protein degraders” (THE REGENTS OF THE UNIVERSITY OF MICHIGAN, priority 2016, dated 2021).

Each structure is given as a SMILES string. Bounds are passed on as bounds.

The subject of one test is MOLM-13. Kind of test: Cell growth inhibition, CellTiter-Glo Luminescent Cell Viability Assay, MOLM-13. Format: cell-based. As to conditions: Homo sapiens, MOLM-13 cells, 4 days incubation. The protocol:
(§1) Cell growth inhibitory activity of representative Compounds of the Disclosure was determined in various cell lines using CellTiter-Glo® Luminescent Cell Viability Assay. Cells were seeded in 384-well white opaque cell culture plates at a density of 2,000 cells/well with serially diluted compounds and incubated at 37° C. in an atmosphere of 95% air and 5% CO2 for 4 days. Cell viability was determined using the CellTiter-Glo® Luminescent Cell Viability Assay Kit (Promega, Madison, Wis.) according to the manufacture's instruction. Briefly, a volume of CellTiter-Glo® Reagent equal to the volume of cell culture medium was added to each well, and then the plates were incubated at room temperature for 10-20 minutes. The luminescent signal was measured using a Tecan Infinite M1000 multimode microplate reader (Tecan, Morrisville, N.C.). The half maximal inhibitory concentration (IC50) was calculated using the GraphPad Prism 5 software (GraphPad Software, La Jolla, Calif.).

For another test, the system named is MDA-MB-231. Description: Cell growth inhibition, CellTiter-Glo Luminescent Cell Viability Assay, MDA-MB-231. The class given is cell-based. As to conditions: Homo sapiens, MDA-MB-231 cells, 4 days incubation. The protocol:
as §1
In general terms: Cellular ATP, detected with luciferase, serves as a proxy for viable cell number.

For `Cc1c(C#Cc2ccc(OCCC#Cc3cccc4c3CN(C3CCC(=O)NC3=O)C4=O)cn2)sc2c1C(c1ccc(Cl)cc1)=NCc1nnc(C)n1-2` (stereo not drawn) [Cpd. No. 15, 3-(4-(4-((6-((4-(4-chlorophenyl)-3,9-dimethyl-6H-thieno[3,2-f][1,2,4]triazolo[4,3-a][1,4]diazepin-2-yl)ethynyl)pyridin-3-yl)oxy)but-1-yn-1-yl)-1-oxoisoindolin-2-yl)piperidine-2,6-dione], the half-maximal inhibitory concentration (IC50) turned out to be 82.6 nM in the test on MOLM-13 (96 h) and 39.1 nM with MDA-MB-231 (96 h).
Consider `Cc1c(C#Cc2ccc(OCCC#Cc3cccc4c3CN(C3CCC(=O)NC3=O)C4=O)cn2)sc2c1C(c1ccc(Cl)cc1)=N[C@@H](C)c1nnc(C)n1-2` (stereo partly drawn) [Cpd. No. 16, 3-(4-(4-((6-(((S)-4-(4-chlorophenyl)-3,6,9-trimethyl-6H-thieno[3,2-f][1,2,4]triazolo[4,3-a][1,4]diazepin-2-yl)ethynyl)pyridin-3-yl)oxy)but-1-yn-1-yl)-1-oxoisoindolin-2-yl)piperidine-2,6-dione], for which the concentration for half-maximal inhibition (IC50) turned out to be 1.1 nM in the test with MOLM-13 (MOLM-13, 96 h) and 1.7 nM in the test with MDA-MB-231 (MDA-MB-231, 96 h).
Taken in the same sequence, the figures for `Cc1c(C#Cc2ccc(CCCCNc3cccc4c3CN(C3CCC(=O)NC3=O)C4=O)nc2)sc2c1C(c1ccc(Cl)cc1)=NCc1nnc(C)n1-2` (stereo not drawn) [Cpd. No. 17, 3-(4-((4-(5-((4-(4-chlorophenyl)-3,9-dimethyl-6H-thieno[3,2-f][1,2,4]triazolo[4,3-a][1,4]diazepin-2-yl)ethynyl)pyridin-2-yl)butyl)amino)-1-oxoisoindolin-2-yl)piperidine-2,6-dione] were 10.3 nM and 11.1 nM.
Turning to `Cc1c(C#Cc2ccc(CCCCNc3cccc4c3CN(C3CCC(=O)NC3=O)C4=O)nc2)sc2c1C(c1ccc(Cl)cc1)=N[C@@H](C)c1nnc(C)n1-2` (stereo partly drawn) [Cpd. No. 18, 3-(4-((4-(5-(((S)-4-(4-chlorophenyl)-3,6,9-trimethyl-6H-thieno[3,2-f][1,2,4]triazolo[4,3-a][1,4]diazepin-2-yl)ethynyl)pyridin-2-yl)butyl)amino)-1-oxoisoindolin-2-yl)piperidine-2,6-dione], the IC50 with MOLM-13 (MOLM-13, 96 h) was 0.23 nM; in the test with MDA-MB-231 (MDA-MB-231, 96 h) it was 0.43 nM.
As for `Cc1c(C#Cc2cnn(CCCCNc3cccc4c3C(=O)N(C3(F)CCC(=O)NC3=O)C4=O)c2)sc2c1C(c1ccc(Cl)cc1)=NCc1nnc(C)n1-2` (stereo not drawn) [compound 144, 4-((4-(4-((4-(4-chlorophenyl)-3,9-dimethyl-6H-thieno[3,2-f][1,2,4]triazolo[4,3-a][1,4]diazepin-2-yl)ethynyl)-1H-pyrazol-1-yl)butyl)amino)-2-(3-fluoro-2,6-dioxopiperidin-3-yl)isoindoline-1,3-dione], the 50% inhibitory concentration (IC50) in the test on MOLM-13 (MOLM-13, 96 h) was 6.8 nM; with MDA-MB-231 (MDA-MB-231, 96 h), 10.1 nM.
Consider `Cc1c(C#Cc2cnn(CCCCOc3cccc4c3CN(C3CCC(=O)NC3=O)C4=O)c2)sc2c1C(c1ccc(Cl)cc1)=NCc1nnc(C)n1-2` (stereo not drawn) [compound 146, 3-(4-(4-(4-((4-(4-chlorophenyl)-3,9-dimethyl-6H-thieno[3,2-f][1,2,4]triazolo[4,3-a][1,4]diazepin-2-yl)ethynyl)-1H-pyrazol-1-yl)butoxy)-1-oxoisoindolin-2-yl)piperidine-2,6-dione], for which the half-maximal inhibitory concentration (IC50) was 1 nM with MOLM-13 (MOLM-13, 96 h) and 1.2 nM in the test on MDA-MB-231 (MDA-MB-231, 96 h).
With `Cc1c(C#Cc2cnn(CCCN3CCC(Nc4cccc5c4CN(C4CCC(=O)NC4=O)C5=O)CC3)c2)sc2c1C(c1ccc(Cl)cc1)=NCc1nnc(C)n1-2` (stereo not drawn) [compound 148, 3-(4-((1-(3-(4-((4-(4-chlorophenyl)-3,9-dimethyl-6H-thieno[3,2-f][1,2,4]triazolo[4,3-a][1,4]diazepin-2-yl)ethynyl)-1H-pyrazol-1-yl)propyl)piperidin-4-yl)amino)-1-oxoisoindolin-2-yl)piperidine-2,6-dione], the IC50 with MOLM-13 (MOLM-13, 96 h) turned out to be 0.24 nM; in the test on MDA-MB-231 (MDA-MB-231, 96 h), 0.4 nM.
With `Cc1c(C#Cc2cnn(CCCCN3CCC(Nc4cccc5c4CN(C4CCC(=O)NC4=O)C5=O)CC3)c2)sc2c1C(c1ccc(Cl)cc1)=NCc1nnc(C)n1-2` (stereo not drawn) [compound 149, 3-(4-((1-(4-(4-((4-(4-chlorophenyl)-3,9-dimethyl-6H-thieno[3,2-f][1,2,4]triazolo[4,3-a][1,4]diazepin-2-yl)ethynyl)-1H-pyrazol-1-yl)butyl)piperidin-4-yl)amino)-1-oxoisoindolin-2-yl)piperidine-2,6-dione], the half-inhibitory concentration (IC50) was found to be 0.42 nM in the test with MOLM-13 (MOLM-13, 96 h) and 0.67 nM in the test with MDA-MB-231 (MDA-MB-231, 96 h).
Take `Cc1c(C#Cc2cnn(CCn3cnc(CNc4cccc5c4CN(C4CCC(=O)NC4=O)C5=O)c3)c2)sc2c1C(c1ccc(Cl)cc1)=NCc1nnc(C)n1-2` (stereo not drawn) [compound 150, 3-(4-(((1-(2-(4-((4-(4-chlorophenyl)-3,9-dimethyl-6H-thieno[3,2-f][1,2,4]triazolo[4,3-a][1,4]diazepin-2-yl)ethynyl)-1H-pyrazol-1-yl)ethyl)-1H-imidazol-4-yl)methyl)amino)-1-oxoisoindolin-2-yl)piperidine-2,6-dione]: the IC50 in the test on MOLM-13 (MOLM-13, 96 h) is over 100 nM; in the test on MDA-MB-231 (MDA-MB-231, 96 h), over 100 nM.
Turning to `Cc1c(C#Cc2cnn(CCCn3cnc(CNc4cccc5c4CN(C4CCC(=O)NC4=O)C5=O)c3)c2)sc2c1C(c1ccc(Cl)cc1)=NCc1nnc(C)n1-2` (stereo not drawn) [compound 151, 3-(4-(((1-(3-(4-((4-(4-chlorophneyl)-3,9-dimethyl-6H-thieno[3,2-f][1,2,4]triazolo[4,3-a][1,4]diazepin-2-yl)ethynyl)-1H-pyrazol-1-yl)propyl)-1H-imidazol-4-yl)methyl)amino)-1-oxoisoindolin-2-yl)piperidine-2,6-dione], the IC50 with MOLM-13 (MOLM-13, 96 h) is over 100 nM; in the test on MDA-MB-231 (MDA-MB-231, 96 h) it was over 100 nM.
For the molecule `Cc1c(C#Cc2cnn(CCCCn3cnc(CNc4cccc5c4CN(C4CCC(=O)NC4=O)C5=O)c3)c2)sc2c1C(c1ccc(Cl)cc1)=NCc1nnc(C)n1-2` (stereo not drawn) [compound 152, 3-(4-(((1-(4-(4-((4-(4-chlorophenyl)-3,9-dimethyl-6H-thieno[3,2-f][1,2,4]triazolo[4,3-a][1,4]diazepin-2-yl)ethynyl)-1H-pyrazol-1-yl)butyl)-1H-imidazol-4-yl)methyl)amino)-1-oxoisoindolin-2-yl)piperidine-2,6-dione], the IC50 in the test with MOLM-13 (MOLM-13, 96 h) stood at 8.7 nM; with MDA-MB-231 (MDA-MB-231, 96 h), 12.2 nM.
Consider `Cc1c(C#Cc2cnn(CCn3cnc(COc4cccc5c4C(=O)N(C4CCC(=O)NC4=O)C5=O)c3)c2)sc2c1C(c1ccc(Cl)cc1)=NCc1nnc(C)n1-2` (stereo not drawn) [compound 153, 4-((1-(2-(4-((4-(4-chlorophenyl)-3,9-dimethyl-6H-thieno[3,2-f][1,2,4]triazolo[4,3-a][1,4]diazepin-2-yl)ethynyl)-1H-pyrazol-1-yl)ethyl)-1H-imidazol-4-yl)methoxy)-2-(2,6-dioxopiperidin-3-yl)isoindoline-1,3-dione], for which the IC50 with MOLM-13 (MOLM-13, 96 h) was over 100 nM; in the test with MDA-MB-231 (MDA-MB-231, 96 h), over 100 nM.
Consider `Cc1c(C#Cc2cnn(CCn3cnc(COc4cccc5c4CN(C4CCC(=O)NC4=O)C5=O)c3)c2)sc2c1C(c1ccc(Cl)cc1)=NCc1nnc(C)n1-2` (stereo not drawn) [compound 154, 3-(4-((1-(2-(4-((4-(4-chlorophenyl)-3,9-dimethyl-6H-thieno[3,2-f][1,2,4]triazolo[4,3-a][1,4]diazepin-2-yl)ethynyl)-1H-pyrazol-1-yl)ethyl)-1H-imidazol-4-yl)methoxy)-1-oxoisoindolin-2-yl)piperidine-2,6-dione], for which the concentration for half-maximal inhibition (IC50) in the test with MOLM-13 (MOLM-13, 96 h) was over 100 nM; in the test on MDA-MB-231 (MDA-MB-231, 96 h), over 100 nM.
Turning to `Cc1c(C#Cc2cnn(CCCN3CC(Nc4cccc5c4CN(C4CCC(=O)NC4=O)C5=O)C3)c2)sc2c1C(c1ccc(Cl)cc1)=N[C@@H](C)c1nnc(C)n1-2` (stereo partly drawn) [compound 177, 3-(4-((1-(3-(4-(((S)-4-(4-chlorophenyl)-3,6,9-trimethyl-6H-thieno[3,2-f][1,2,4]triazolo[4,3-a][1,4]diazepin-2-yl)ethynyl)-1H-pyrazol-1-yl)propyl)azetidin-3-yl)amino)-1-oxoisoindolin-2-yl)piperidine-2,6-dione], the half-inhibitory concentration (IC50) in the test with MOLM-13 (MOLM-13, 96 h) is 0.6 nM. That is a sub-nanomolar value.
Molecule `Cc1c(C#Cc2cnn(CCOCCOCCNc3cccc4c3CN(C3CCC(=O)NC3=O)C4=O)c2)sc2c1C(c1ccc(Cl)cc1)=N[C@@H](C)c1nnc(C)n1-2` (stereo partly drawn) [compound 188, 3-(4-((2-(2-(2-(4-(((S)-4-(4-chlorophenyl)-3,6,9-trimethyl-6H-thieno[3,2-f][1,2,4]triazolo[4,3-a][1,4]diazepin-2-yl)ethynyl)-1H-pyrazol-1-yl)ethoxy)ethoxy)ethyl)amino)-1-oxoisoindolin-2-yl)piperidine-2,6-dione] had an IC50 in the test with MDA-MB-231 (MDA-MB-231, 96 h) of 1.7 nM.
Turning to `Cc1ncsc1-c1ccc([C@H](C)NC(=O)[C@@H]2COCCN2C(=O)[C@@H](NC(=O)COCCCn2cc(C#Cc3sc4c(c3C)C(c3ccc(Cl)cc3)=N[C@@H](C)c3nnc(C)n3-4)cn2)C(C)(C)C)cc1` [compound 202, (S)-4-((S)-2-(2-(3-(4-(((S)-4-(4-chlorophenyl)-3,6,9-trimethyl-6H-thieno[3,2-f][1,2,4]triazolo[4,3-a][1,4]diazepin-2-yl)ethynyl)-1H-pyrazol-1-yl)propoxy)acetamido)-3,3-dimethylbutanoyl)-N-((S)-1-(4-(4-methylthiazol-5-yl)phenyl)ethyl)morpholine-3-carboxamide], inhibition in the test with MOLM-13 (MOLM-13, 96 h) was half-maximal at 91.6 nM (IC50).
Take `Cc1ncsc1-c1ccc([C@H](C)NC(=O)[C@@H]2C[C@@H](F)CN2C(=O)[C@@H](NC(=O)COCCCn2cc(C#Cc3sc4c(c3C)C(c3ccc(Cl)cc3)=N[C@@H](C)c3nnc(C)n3-4)cn2)C(C)(C)C)cc1` [compound 203]: in the test with MDA-MB-231 (MDA-MB-231, 96 h), the IC50 is 37.5 nM.
